Measurements from paper PMC12040169 (PLOS Biology, 2025).

assay: in vitro; settings: human, hela cells, % viability

Structure (SMILES) | viability at 28.5 h, 10 µM
Oc1ccc2ccccc2c1/C=N/c1ccc(-c2cc(-c3ccc(/N=C/c4c(O)ccc5ccccc45)cc3)ncn2)cc1 [CBK261621] | 104%
CC1CC(C)CN(C(=O)c2ccc(-n3ccnc3)c(-n3cccc3)c2)C1 (stereo not shown) [CBK285372] | 101%
O=C(NCCc1ccccn1)N1CCCN(Cc2cccs2)CC1 [CBK305283] | 80.5%
O=C(O)C1CCN(C(=O)CCn2ccc3cc(Br)ccc32)CC1 [CBK286617] | 105%
Cc1ccc(-c2nc(C3CCCN3C(=O)C3CC3C(=O)O)n3ccccc23)cc1 (stereo not shown) [CBK046559] | 79.8%
CCc1cc(C(=O)NC(CCn2ccnc2)c2ccccc2)cc(=O)[nH]1 (stereo not shown) [CBK306679] | 114%
Cc1noc(C)c1S(N)(=O)=O [CBK022939] | 84.6%
CC(=O)Nc1cccc(-c2cnc(Nc3ccc(N4CCOCC4)cc3)c3nccn23)c1 [CBK091235] | 99.9%
C=CCNc1nc(N)c(/C(N)=N\C#N)s1 [CBK019028] | 99.3%
CCc1cc2cc3c(cc2nc1SCC(=O)Nc1cccc(C(C)=O)c1)OCO3 [CBK108551] | 92.6%
COCCNC(=O)Cn1c(-c2ccco2)cc2cccnc21 [CBK282720] | 80.6%
O=C(CCc1ccccc1)N1CCCC1c1cccc(Cc2ccccc2F)n1 (stereo not shown) [CBK286208] | 118%
Cc1ccc(NC(=O)c2cccnc2)c(C(=O)O)c1 [CBK000177] | 103%
CCn1cc(C(=O)N2CCCCC2c2nc3cc(C)ccc3[nH]2)cn1 (stereo not shown) [CBK283869] | 84.6%
CN(C(=O)CN1CCN(c2cc(-c3cc(C(F)(F)F)cc(C(F)(F)F)c3)ncn2)CC1)c1ccccc1 [CBK091125] | 103%
CCOc1ccccc1NC(=O)NCCSCc1ccco1 [CBK057501] | 94.5%
CCn1c2ccccc2c2cc(CN(C)Cc3ccccc3)ccc21 [CBK261901] | 94.1%
COc1ccccc1/C=C1/S/C(=N/Cc2ccccc2)N(Cc2ccccc2)C1=O [CBK262234] | 99.3%
CC(C)NC(=O)N[C@H]1CC[C@]2(CC1)CC(=O)c1ccccc1O2 [CBK283389] | 111%
COc1ccc(OC)c(N(CC(=O)N2CCN(C)CC2)S(=O)(=O)c2ccccc2)c1 [CBK264131] | 98.8%
COc1ccccc1C(NC(=O)C1CCN(CCn2cnc3c2c(=O)n(C)c(=O)n3C)CC1)c1ccccn1 (stereo not shown) [CBK147939] | 91.7%
N=c1n(CC(=O)c2ccc(Br)s2)c2ccccc2n1Cc1ccccc1 [CBK262482B] | 91.4%

Structure (SMILES) | viability at 28.5 h, 10 µM
COc1ccc(-c2cnc(N)c(NCc3cccnc3)n2)c(OC)c1OC [CBK063540] | 99%
CC(C)(C)OC(=O)N1CCCN(Cc2nnc(-c3ccco3)o2)CC1 [CBK305271] | 103%
c1csc(-c2cn3ccnc3c(NC3CC3)n2)c1 [CBK066712] | 108%
COCCNc1ncnc2sc3c(c12)CCCC3 [CBK287583] | 98.4%
CCCC(C)C(=O)Nc1ccncc1 (stereo not shown) [CBK057984] | 87.1%
O=C(N/N=C/c1c(Cl)cccc1Cl)c1cc(Br)ccc1O [CBK262022] | 95.1%
O=C(Cc1ccsc1)N1C[C@@H]2CCCCN(CC3CC3)[C@@H]2C1 [CBK285507] | 104%
Cc1c(NCc2ccc3c(c2)n(C)c(=O)n3C)cccc1C(=O)O [CBK287237] | 98.6%
Cn1cc(-c2ncc(OCCc3c[nH]c4ccccc34)nc2N)cn1 [CBK145166] | 88.3%
O=C1NCCCNC(=O)C2(C/C=C/CCOc3ccccc31)CCN(C(=O)CN1CCCC1)CC2 [CBK292052] | 101%
O=C(Nc1ccccn1)c1cnn(-c2ccc(Cl)cc2)c1C(F)(F)F [CBK107442] | 92.2%
COc1cc(NC(=O)C2CCCN2)ccc1-n1cccc1 (stereo not shown) [CBK282500] | 85.4%
Nc1ncc(-c2cccnc2)nc1NC1CCC(O)CC1 (stereo not shown) [CBK063840] | 92.7%
O=C(CSc1ncn(-c2ccccc2)n1)Nc1ccccc1Cl [CBK265593] | 104%
COc1cccc(N(CC(=O)Nc2ccccc2Cl)S(=O)(=O)c2ccc(C)cc2)c1 [CBK263791] | 93.4%
O=C(O)COc1ccc2c(=O)c(Oc3ccccc3Br)c(C(F)(F)F)oc2c1 [CBK263747] | 101%
CC1CCCC(C)N1CC(O)COc1ccc(/N=C/c2ccccc2)cc1 (stereo not shown) [CBK261764] | 78.5%
CC1=C[C@@H](CNS(=O)(=O)c2cccs2)[C@H](C(C)C)C[C@H]1CC(=O)O [CBK289210] | 92.4%
CC(=O)N1CCc2cc(Nc3ncnc4c3cnn4CCC#N)ccc21 [CBK305950] | 101%
CC(C)(C)C(=O)/N=c1/[nH]nc(-c2cccnc2)s1 [CBK288203] | 98.3%
Cc1ccc(OCC(O)Cn2c(=N)n(Cc3ccccc3)c3ccccc32)cc1 (stereo not shown) [CBK266293C] | 91.7%
COc1cnc(-c2cc(Cl)cc(Cl)c2)c(NC(C)=O)n1 [CBK145333] | 105%

Structure (SMILES) | viability at 28.5 h, 10 µM
COc1ccc2c(c1)CC(C(=O)N1CCc3sccc3C1c1cccs1)CO2 (stereo not shown) [CBK285628] | 110%
O=c1[nH]cc(COCc2ccccc2)c(=O)[nH]1 [CBK261847] | 94%
NS(=O)(=O)c1ccc(CCNC=C2C(=O)c3ccccc3C2=O)cc1 [CBK262997] | 99%
O=C(/C=C/c1cccc([N+](=O)[O-])c1)NCCN1CCOCC1 [CBK262283] | 90.5%
COc1ccc([C@@]23CC[C@@H](C(=O)Nc4ccc(C(F)(F)F)cn4)C[C@@H]2N(C)CC3)cc1OC [CBK046310T] | 87.3%
COc1ccc(C2(C)NC(=O)N(CC(=O)Nc3ccc(NC(C)=O)cc3)C2=O)cc1 (stereo not shown) [CBK295182] | 106%
CCSc1c(C)cnc2c1c(=O)n(C)c(=O)n2C [CBK287748] | 99.8%
O=C1/C(=C/c2cn(Cc3cccc4ccccc34)c3ccccc23)C(O)=NN1c1ccccc1 [CBK264849] | 94.7%
CCC(NC(=O)Nc1cc(N2CCOCC2)ccc1Cl)c1cnn(C)c1 (stereo not shown) [CBK306844] | 114%
O=C(CSc1n[nH]c(-c2ccccc2Cl)n1)Nc1ccccc1F [CBK265901] | 82.9%
CN1CCN(NC(=O)COc2ccc(-c3ccccc3)cc2)CC1 [CBK268117] | 89.8%
CCOC(=O)CCNC(=O)C1(c2ccc(OC)cc2)CC1 [CBK161490] | 87.3%
c1ccc(OCCOc2ccc(N3CCNCC3)nn2)cc1 [CBK022577F] | 109%
O=S(=O)(NC(c1ccccc1)c1ccccc1)c1ccc(Cl)cc1 [CBK261759] | 104%
O=C(O)CSCC(=O)Nc1ccc(Cl)cn1 [CBK057543] | 86.5%
O=C(c1ccccc1)c1cc[n+](CCC[n+]2ccc(C(=O)c3ccccc3)cc2)cc1 [CBK278270B] | 91.5%
Cc1ccc(NC(=O)C2C3C=CC(O3)C2C(=O)O)cc1 (stereo not shown) [CBK263670] | 91.4%
CC(C)c1nccc(CN2CCC(CCN3CCCC3=O)CC2)n1 [CBK306887] | 116%
CCCC(=O)Nc1nnc(-c2ccc(C)cc2C)o1 [CBK287700] | 107%
CS(=O)(=O)CCNC(=O)c1cnc(-c2ccc(F)cc2)c(-c2cccnc2)c1 [CBK038066] | 88%
